Laboratory results as given in patent publication US11718628B2, “SREBP inhibitors comprising a 6-membered central ring” (Capulus Therapeutics, LLC, priority 2018, dated 2023).
Like-named read-outs stand apart in the source and are kept apart here.

How the values were obtained:
[1] = Log D by octanol/aqueous buffer partitioning; assay type: physicochemical; conditions: 1-octanol/aqueous buffer; pH 7.4, 1-octanol/buffer; read-out: LogD
Method: The Log D of selected compounds was evaluated by octanol/aqueous buffer partitioning. 500 μL of organic phase (1-octanol) was added to each well of a 2 mL deep well plate, followed by 500 μL of buffer and 15 μL of test compound in DMSO (0.15 mM). The plate was vortexed for 10 seconds and incubated at room temperature for 1 hr on a plate shaker at 200 rpm. After incubation, the samples were allowed to equilibrate for 20 min and then centrifuged at 4000 rpm for 30 min for complete phase separation. The distribution of test compound in buffer and octanol phase was analyzed by HPLC-UV. Log D=Log (Area of Octanol/Area of Buffer).

[2] = In vivo pharmacokinetic properties in mice (IV and PO); parameters: species or system C57BL/6J mice; conditions: C57BL/6J, mouse, in vivo
In short: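 Male C57BL/6J mice received 10 mg/kg orally; plasma sampled by retro-orbital capillary at 0.25–24 h. IV dosing described at 2.00 mg/kg via tail vein, plasma sampled 0.083–24 h.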

[3] = Plasma and liver compound levels in mice after oral administration; assay type: in vivo; conditions: mouse, 30 mg/kg, 30 mpk
Method: (§1) The pharmacodynamic properties of selected compounds were evaluated in mice. The animals were housed in cages with clean bedding, and maintained and monitored for good health in accordance with Test Facility SOPs and at the discretion of the laboratory animal veterinarian. Certified rodent diet was provided. Food and water was available ad libitum. Environmental controls for the animal room were set to maintain a temperature of 22° C. to 25° C., humidity of 40-70% RH, and a 12-hour light/[…]. Normal healthy animals certified by the attending veterinarian were selected and acclimatized for minimum three days prior to initiation of study. Animals were identified with body markings.
(§2) Aliquots of the compounds being evaluated were weighed and triturated with 0.5% methylcellulose (with the addition of 5% N-methyl pyrrolidone when required to remove clumping, as for Z-806) to an appropriate dose concentration. Vials were labeled with the information about study number, test item, concentration and date of preparation. A description of appearance of formulation was recorded (e.g., color, turbidity, etc.). The composition of formulation vehicle was recorded. An aliquot of each dose solution was taken before the dosing began and after dosing was finished, and stored at approximately −20° C. or below for subsequent analysis. The animals were dosed orally through oral gavage needle, and time of dosing was recorded.
After dosing, the mice were anesthetized using gaseous anesthesia. Blood samples were collected through a capillary, guided in retro-orbital plexus, at 6 h or at 24 h. Approximately 100 uL of blood was collected from each mouse, in pre-labeled tubes. The collected blood was stored on ice prior to centrifugation. Blood samples were then centrifuged within 1 hour of collection to separate plasma. Centrifugation was conducted at 2500×g for 15 minutes at 4° C. The plasma was separated and transferred to pre-labeled micro-centrifuge tubes and promptly frozen at −80±10° C. until bioanalysis.
(§3) Liver Collection at 6 h or 24 h: Immediately after blood withdrawal for pharmacokinetic evaluation (at 6 or at 24 h), liver tissue was collected without perfusion. Animals were euthanized using carbon dioxide gas in a CO2 chamber. The whole blood was drained by cutting the both side jugular vein and abdominal aorta. The liver was separated out. All the liver samples were divided in two parts. The first part (200 mg approx.) was snap frozen using liquid nitrogen as soon as possible. These samples were immediately transferred to −80° C. for storage. The remaining part was weighed and used for bioanalysis.

[4] = In vivo pharmacokinetic properties in rats (IV and PO); parameters: species or system male Sprague Dawley rats; conditions: male, Sprague Dawley, rat, plasma; for clearance: read-out: Intravenous Delivery (IV) CL; for Vd: read-out: Intravenous Delivery (IV) Vd; for bioavailability: PO 10 mg/kg vs IV 2 mg/kg, read-out: % F (Bioavailability of oral delivery); for Tmax: read-out: Oral Administration (PO) Tmax
In short: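 Male Sprague Dawley rats received 2.00 mg/kg IV via the tail vein, with plasma sampled from a cannulated jugular vein from 0.083 to 24 h. Oral dosing was 10 mg/kg in rats or C57BL/6J mice, sampled at 0.25-24 h by jugular cannula (rats) or retro-orbital plexus (mice).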

[5] = system: liver gene expression (ACACA, ACLY, FASN, LSS, PNPLA3); test: Liver gene expression in mice after oral administration; assay type: in vivo; conditions: 30 mpk, vs vehicle
Method: as §1, §2, §3
RNA Processing and Gene Expression Analysis: Liver Tissue RNA was harvested with the RNEasy kit and 20-100 ng used to synthesize cDNA with random primers following the manufacturer's protocol. Quantitative PCR was performed on 1 pg to 100 ng cDNA for the following genes: ACACA, ACLY, FASN, LSS, PNPLA3. Gene expression levels were determined using ΔΔCT method comparing treated to vehicle treated samples as a baseline, and fold change calculated. The average value for all 5 genes above was averaged and termed to Total Fold Change The results from this evaluation are presented in Table 8.

[6] = 10 mg/kg, heading: Oral Administration AUC0-last, PO, 10 mg/kg
[7] = IV, 2 mg/kg, read-out: Intravenous Delivery (IV) AUC0-last
[8] = IV, 2 mg/kg, read-out: Intravenous Delivery (IV) T1/2 (converted)
[9] = PO, 10 mg/kg, read-out: Oral Administration (PO) T1/2 (converted)

O=C(c1ccc(-c2cncc(-c3ccnc4c3OCCO4)c2)c(Cl)c1)N1CCC(O)CC1 [Compound Z-806, (3-chloro-4-(5-(2,3-dihydro-[1,4]dioxino[2,3-b]pyridin-8-yl)pyridin-3-yl)phenyl)(4-hydroxypiperidin-1-yl)methanone]
LogD [1]: 1.98
bioavailability [2]: 58%
AUC(0-t) ([2]; iv, 2 mg/kg): 1540 ng·h/mL
Vd ([2]; iv, 2 mg/kg): 8.91 L/kg
clearance ([2]; iv, 2 mg/kg): 21 mL/min/kg
half-life ([2]; iv, 2 mg/kg): 293 min
AUC(0-t) ([2]; po, 3 mg/kg): 1370 ng·h/mL
Tmax ([2]; po, 3 mg/kg): 15 min
half-life ([2]; po, 3 mg/kg): 211 min
concentration at 6 h ([3]; liver, read-out: Liver ng/mg (6 h)): > 1e+06 ng/g
concentration at 24 h ([3]; liver, read-out: Liver ng/mg 24 h): > 1e+06 ng/g
concentration at 6 h ([3]; plasma, read-out: Plasma ng/mL (6 h)): > 1000 ng/mL
concentration at 24 h ([3]; plasma, read-out: Plasma ng/mL (24 h)): > 1000 ng/mL
AUC(0-t) [4, 6]: 272 ng·h/mL
AUC(0-t) [4, 7]: 2630 ng·h/mL
clearance ([4]; IV, 2 mg/kg): 12.8 mL/min/kg
half-life [4, 8]: 122 min
Vd ([4]; IV, 2 mg/kg): 2.26 L/kg
bioavailability [4]: 2.1%
half-life [4, 9]: 150 min
Tmax ([4]; PO, 10 mg/kg): 19.8 min
Total Gene FC Time (6 h) ([5]; 6 h): ++ (0.51-0.7509 = ++)
Total Gene FC Time (24 h) ([5]; 24 h): +++ (0-0.509 = +++)

COc1c(-c2ccnc(C(C)(C)C)c2)cncc1-c1ccc(C(=O)N2CCC(O)CC2)cc1Cl [Compound Z-840, (4-(2′-(tert-butyl)-4-methoxy-[3,4′-bipyridin]-5-yl)-3-chlorophenyl)(4-hydroxypiperidin-1-yl)methanone]
melting point: 105 to 109 °C

CC(C)(C)c1cc(-c2cncc(-c3ccc(C(=O)N4CCC(O)CC4)cc3)c2F)ccn1 [Compound Z-866, (4-(2′-(tert-butyl)-4-fluoro-[3,4′-bipyridin]-5-yl)phenyl)(4-hydroxypiperidin-1-yl)methanone]
AUC(0-t) [4, 6]: 151 ng·h/mL
AUC(0-t) [4, 7]: 1070 ng·h/mL
clearance ([4]; IV, 2 mg/kg): 31.7 mL/min/kg
half-life [4, 8]: 54.6 min
Vd ([4]; IV, 2 mg/kg): 2.54 L/kg
bioavailability [4]: 2.8%
half-life [4, 9]: 41.4 min
Tmax ([4]; PO, 10 mg/kg): 30 min
melting point: 100 to 104 °C
